From patent US5756467A, “Adipocyte differentiation inhibiting peptide and adipocyte differentiation inhibiting agent using the peptide as active component thereof” (Itoham Foods Inc., priority 1993, dated 1998)
Residues, ends and D or L forms follow the SMILES beside them.

Assays:
Swiss mouse 3T3-L1 cells = test: Adipocyte differentiation of preadipocytes in vitro, GPDH activity as marker enzyme (Tests 1 and 2); format: cell-based; settings: for action to inhibit the GPDH activity: treatment before and after the induction of differentiation, depending on the peptide concentration
Experimental: (1) Treatment before induction of differentiation
Swiss mouse 3T3-L1 cells were inoculated at a density of about 3×10^4 cells/ml to a cell culturing dish. A Dulbecco modified Eagle culture medium (DMEM) containing bovine fetal blood serum incorporated therein at a concentration of 10% was used as the culture medium. The culture was invariably carried out in an ambience of 5% CO2 and 95% of air at 37° C.
After a monolayer of cells was formed, the cell layer surface was washed with a phosphate buffer physiological salt solution (PBS). In the presence of culture media containing the CD and the fraction A respectively at concentration of 0, 2, 4, and 8 mg/ml and at concentration of 0, 20, 40, and 80 μg/ml, the cell layer was cultured. Then, the cell layer surface was washed with PBS and the cell layer was cultured for two days in the presence of a culture medium incorporating therein the differentiation inducing substance (0.25 μM of dexamethasone, […] of a-methyl-3-isobutyl xanthine, and 10 μg/ml insulin).
Subsequently, the cell layer was deprived of the culture medium containing the differentiation-inducing substance. The cell layer surface was washed likewise with PBS and the cell layer was cultured for about one week in the presence of a culture medium incorporating insulin therein at a concentration of 10 μg/ml.
The effect of the fraction A on the adipocyte differentiation was rated by determining the glycerol-3-phosphate dehydrogenase activity (GPDH) by the well-known method as a marker enzyme.
(2) Treatment after induction of differentiation
Swiss mouse 3T3-L1 cells were cultured by the same method as in (1) mentioned above and then tested for GPDH activity, providing that the culture medium containing insulin at a concentration of 10 μg/ml was added to the GD and the fraction A after the removal of the culture medium containing the differentiation inducing substance.
[Test 2] Differentiation inhibiting effect of adipocyte differentiation inhibiting peptide (chemical synthesis product) on preadipocytes (in vitro)
The effects of the chemically synthesized H-Val-Thr-Leu-OH and the H-Val-Tyr-Pro-OH obtained by the same method as in Example 5 on Swiss mouse 3T3-L1 cells in were investigated by the same method as in Example 5. […]

[1] = tested on: adipocytes in adipose tissue; test: Effect of synthetic peptides on increase of cell number in murine adipose tissue (Test 3); format: in vivo, mice; settings: 50% fat meal + 20 ppm peptide
Experimental: [Test 3] Effect of adipocyte differentiation inhibiting peptide (chemical synthesis product) (in vivo)
The two adipocyte differentiation inhibiting peptides of the invention, Val-Thr-Leu and Val-Tyr-Pro, synthesized by the method shown in Example 5 were tested for effect on increase of adipocytes (in vivo). The test was performed by the same method as in Test 1 using globin proteolysate.

adipose tissue = test: Effect of globin proteolysate on increase of adipose tissue, mice on 50% fat feed (Test 4); format: in vivo; settings: 50% fat feed + Clenbuterol 2 ppm
Excerpt: Then, mice were allowed to ingest freely 50% fat feed and then tested for weight of adipose tissue and cell number.

[2] = tested on: cells in the subcutaneous adipose tissue; test: Effect of globin proteolysate on distribution of adipose tissue cells (Test 4); format: in vivo, mice; settings: 50% fat feed + Clenbuterol 2 ppm
Excerpt: The cell number in adipose tissues shown in Table 7 represent the values including adipocytes, preadipocytes, fibroblasts, blood vessel cells, etc. The cells in the subcutaneous adipose tissue were investigated in detail as sorted into matured adipocytes, immatured adipocytes, and interstitial cells (stroma).
It is clearly noted from Table 8 showing the results of the investigation that particularly the differentiation of fibro-blasts in the group of interstitial cells represented as stromas to preadipocytes was repressed.

[3] = Peptide 0.2 mg/ml, treatment after induction of differentiation (48 hours)
[4] = Peptide 0.2 mg/ml, treatment before induction of differentiation (48 hours)
[5] = Peptide 0.4 mg/ml, treatment after induction of differentiation (48 hours)
[6] = Peptide 0.4 mg/ml, treatment before induction of differentiation (48 hours)
[7] = Peptide 0.8 mg/ml, treatment after induction of differentiation (48 hours)
[8] = Peptide 0.8 mg/ml, treatment before induction of differentiation (48 hours)

SMILES | GDPH activity (Swiss mouse 3T3-L1 cells; [3]) | Ratio of Inhibition (Swiss mouse 3T3-L1 cells; [3]) | GDPH activity (Swiss mouse 3T3-L1 cells; [4]) | Ratio of Inhibition (Swiss mouse 3T3-L1 cells; [4]) | GDPH activity (Swiss mouse 3T3-L1 cells; [5]) | Ratio of Inhibition (Swiss mouse 3T3-L1 cells; [5]) | GDPH activity (Swiss mouse 3T3-L1 cells; [6]) | Ratio of Inhibition (Swiss mouse 3T3-L1 cells; [6]) | GDPH activity (Swiss mouse 3T3-L1 cells; [7]) | Ratio of Inhibition (Swiss mouse 3T3-L1 cells; [7]) | GDPH activity (Swiss mouse 3T3-L1 cells; [8]) | Ratio of Inhibition (Swiss mouse 3T3-L1 cells; [8]) | action to inhibit the GPDH activity (Swiss mouse 3T3-L1 cells) | Number of adipocytes, Epididymal adipose tissue [1] | Number of adipocytes, Retroperitoneal adipose tissue [1] | Number of adipocytes, Subcutaneous adipose tissue [1] | further results
CC(C)[C@H](N)C(=O)N[C@@H](Cc1ccc(O)cc1)C(=O)N1CCC[C@H]1C(=O)O [Val-Tyr-Pro, H-Val-Tyr-Pro-OH] (H-Val-Tyr-Pro-OH) | 412.6 ± 20.3 mU/mg protein | 42.5% | 106.7 ± 28.1 mU/mg protein | 83.0% | 197.3 ± 27.5 mU/mg protein | 72.5% | 10.6 ± 2.3 mU/mg protein | 98.5% | 14.7 ± 2.7 mU/mg protein | 98.0% | 7.8 ± 1.5 mU/mg protein | 98.7% | conspicuous action to inhibit the GPDH activity | 102 DNA μg/adipose tissue | 27 DNA μg/adipose tissue | 125 DNA μg/adipose tissue | 
CC(C)(C)NCC(O)c1cc(Cl)c(N)c(Cl)c1 (centres unmarked) [Clenbuterol] |  |  |  |  |  |  |  |  |  |  |  |  |  |  |  |  | Number of adipocytes, Epididymal adipose tissue (adipose tissue): 79 ± 7 DNA μg/adipose tissue; Number of adipocytes, Retroperitoneal adipose tissue (adipose tissue): 18 ± 2 DNA μg/adipose tissue; Number of adipocytes, Subcutaneous adipose tissue (adipose tissue): 96 ± 8 DNA μg/adipose tissue; weight of adipose tissue, Epididymal adipose tissue (adipose tissue): 0.97 ± .11 g; weight of adipose tissue, Retroperitoneal adipose tissue (adipose tissue): 0.28 ± .04 g; weight of adipose tissue, Subcutaneous adipose tissue (adipose tissue): 1.49 ± .22 g; Adipocyte [2]: 30; Preadipoytes [2]: 30; Stroma [2]: 36
CC(C)C[C@H](NC(=O)[C@@H](NC(=O)[C@@H](N)C(C)C)[C@@H](C)O)C(=O)O [Val-Thr-Leu, H-Val-Thr-Leu-OH] (H-Val-Thr-Leu-OH) | 463.2 ± 29.7 mU/mg protein | 35.5% | 102.5 ± 19.6 mU/mg protein | 82.1% | 281.1 ± 19.6 mU/mg protein | 60.8% | 8.1 ± 1.6 mU/mg protein | 98.6% | 13.8 ± 5.4 mU/mg protein | 98.1% | 6.3 ± 1.9 mU/mg protein | 98.9% | conspicuous action to inhibit the GPDH activity | 88 DNA μg/adipose tissue | 23 DNA μg/adipose tissue | 102 DNA μg/adipose tissue | 
